{"source": "patent US20250204535A1", "about": "“Rodenticide” (priority 2022, published 2025)", "key": {"[1]": {"conditions": "known characteristic of control compound; cited from earlier work"}, "[2]": {"assay": "Caco-2 permeability assay (bi-directional)", "conditions": "human; for recovery at 120 min / recovery at 120 min, 100 μM: Caco-2, pH 7.4, Mean % Recovery; for recovery at 120 min: positive control", "protocol": "(§1) Cells were seeded on to Millipore Multiscreen Transwell plates at 1×10^5 cells/cm^2. The cells were cultured in DMEM and media was changed every two or three days. On day 20, the permeability study was performed. […] On the day of the assay, the monolayers were prepared by rinsing both basolateral and apical surfaces twice with Hanks Balanced Salt Solution (HBSS) at the desired pH warmed to 37° C. Cells were then incubated with HBSS at the desired pH in both apical and basolateral compartments for 40 min to stabilise physiological parameters.\n(§2) The fluorescent integrity marker lucifer yellow was also included in the dosing solution. Analytical standards were prepared from test compound water dilutions and transferred to buffer, maintaining a ≤1% v/v water concentration. Assay buffer was composed of supplemented HBSS pH 7.4.\n(§3) For assessment of apical to basolateral (A2B) permeability, HBSS was removed from the apical compartment and replaced with test compound dosing solution. The apical compartment insert was then placed into a companion plate containing fresh buffer (containing ≤1% v/v Water). For assessment of B2A permeability, HBSS was removed from the companion plate and replaced with test compound dosing solution. Fresh buffer (containing ≤1% v/v Water) was added to the apical compartment insert, which was then placed into the companion plate.\n(§4) At 120 min, the apical compartment inserts and the companion plates were separated, and apical and basolateral samples diluted for analysis. Test compound permeability was assessed in duplicate. Compounds of known permeability characteristics were run as controls on each assay plate.\n(§5) Test and control compounds were quantified by LC-MS/MS cassette analysis using a 7-point calibration with appropriate dilution of the samples. Cyprotex generic analytical conditions were used. The starting concentration (CO) was determined from the dosing solution and the experimental recovery calculated from CO and both apical and basolateral compartment concentrations.\n(§6) The integrity of the polarised cell monolayers throughout the experiment was checked by monitoring lucifer yellow permeation using fluorometric analysis. Permeation of this paracellular marker is low if monolayers have not been damaged. […] If this was not the case, then the result from the affected monolayer was excluded.\n(§7) The determined concentration (nM≡pmol/mL) of each test sample receiver well is multiplied by the volume of the receiver compartment (apical=0.09 mL, basolateral=0.210 mL) to calculate the amount (pmol) of probe substrate permeating the monolayer.\n(§8) Where dQ/dt is the rate of permeation of the drug across the cells, C0 is the donor compartment concentration at time zero and A is the area of the cell monolayer. C0 was obtained from analysis of the dosing solution.\n(§9) An efflux ratio (ER) was calculated from mean A to B and B to A data. This is derived from:\n(§10) Percentage recovery (mass balance) of the test compound or positive control substrate was calculated by dividing the sum of the amount (pmol) in the receiver and donor compartments post-incubation by the amount in the initial donor solution at time zero (C0) and expressing as a percentage.\n(§11) The insert was inserted into the well of a plate to form an Apical chamber (above cells) and basolateral chamber (below cells), with a permeable membrane between the two layers. Compound was then added to either the apical or basolateral chamber and the passage of it monitored into the other chamber. Transfer of the test compound from the apical to basolateral chamber was indicative of cellular uptake, simulating transition of the compound from the intestinal lumen to the bloodstream by uptake receptors (Direction A). […] An Efflux ratio was then calculated from the values obtained for A2B and B2A transmission."}, "[3]": {"test_system": "Caco-2 cells", "assay": "Caco-2 permeability assay (bi-directional)", "conditions": "for Papp Rep 1 / Papp Rep 2 / Papp Mean: 120 min, pH 7.4", "protocol": "as §1, §2, §3, §4, §5, §6, §7, §8, §9, §10, §11"}, "[4]": {"test_system": "Neonatal rat cardiomyocytes", "assay": "Screening synthetic peptides for alterations to rat cardiomyocyte beat rates", "type": "cell-based", "protocol": "(§12) The baseline beat rate of neonatal rat and human IPSC-derived cardiomyocytes to be treated with the three synthetic fractions were determined by video microscopy of each well in triplicate using a microscope camera. Average beats/min were calculated from the triplicate readings of three separate wells (n=9). Aliquots of each peptide were taken to treat neonatal rat cardiomyocyte cells at doses of 100, 10, 1 and 0.1 μg/ml. Cells were returned to a humidified incubator at 37° C., 5% CO2 for 2 h. After 2 h the beat rate of the treated cardiomyocyte cells was reassessed using the same method used to obtain the pre-dosing beat data. This process was repeated 24 h after the addition of the synthetic peptides."}, "[5]": {"test_system": "Neonatal rat cardiomyocytes", "assay": "Screening synthetic peptides for thermal stability (rat cardiomyocyte beat rate after heating at 100° C.)", "type": "cell-based", "conditions": "peptide heated to 100° C.", "protocol": "Thermal stability of the three designed synthetics peptides was investigated. The baseline beat rate of neonatal rat cardiomyocytes to be treated with the synthetic fractions were determined by video microscopy of each well in triplicate using a microscope camera. Average beats/min were calculated from the triplicate readings of three separate wells (n=9). Aliquots of each peptide were heated in a heat block at 100° C. before being used to treat rodent cardiomyocyte cells at doses of 100, 10, 1 and 0.1 μg/ml. Cells were returned to the incubator at 37° C., 5% CO2 for 2 h. After 2 h the beat rate of the treated cardiomyocyte cells was reassessed using the same method used to obtain the pre-dosing beat data. This process was repeated 24 h after the addition of the synthetic peptides. The data of the fold changes in cardiomyocyte beat rate following treatment with the heated synthetic fractions were compared to previously obtains fold-changes in beat rate of the unheated synthetic peptides to assess their thermal stability."}, "[6]": {"test_system": "Human IPSC-derived cardiomyocytes", "assay": "Screening synthetic peptides for alterations to human IPSC-derived cardiomyocyte beat rates", "type": "cell-based", "conditions": "2 h; dose not stated in the sentence (no increase at 0.1, 1 and 10 μg/ml)", "protocol": "as §12"}}, "note": "Where no end group is shown, it is not given here."}
{"compound": "Cc1cc(=O)n(-c2ccccc2)n1C", "note": "[Antipyrine, antipyrine]", "values": [{"measurement": "human absorption", "setting": "[1]", "value": 97, "unit": "%"}, {"measurement": "Papp A→B at 120 min", "setting": "[2]; Caco-2, pH 7.4", "value": 47.1, "unit": "×10⁻⁶ cm/s"}, {"measurement": "Papp B→A at 120 min", "setting": "[2]; Caco-2, pH 7.4", "value": 39.6, "unit": "×10⁻⁶ cm/s"}, {"measurement": "efflux ratio at 120 min", "setting": "[2]; Caco-2, pH 7.4", "value": 0.84}, {"measurement": "recovery at 120 min", "setting": "[2]; A2B", "value": 90.5, "unit": "%"}, {"measurement": "recovery at 120 min", "setting": "[2]; B2A", "value": 87.8, "unit": "%"}, {"measurement": "Papp Rep 1", "setting": "[3]; A2B, positive control", "value": "47.2 ×10^−6 cms^−1"}, {"measurement": "Papp Rep 2", "setting": "[3]; A2B, positive control", "value": "46.9 ×10^−6 cms^−1"}, {"measurement": "Papp Rep 1", "setting": "[3]; B2A, positive control", "value": "38.0 ×10^−6 cms^−1"}, {"measurement": "Papp Rep 2", "setting": "[3]; B2A, positive control", "value": "41.1 ×10^−6 cms^−1"}]}
{"compound": "LKCHKLIPIAWKTK [Synthetic peptide 3]", "values": [{"measurement": "fold-increases to beat rate, rat cardiomyocytes", "setting": "[4]; 100 μg/ml, 2 h", "value": "three-fold"}, {"measurement": "peak increases in rat neonatal cardiomyocyte beat rates", "setting": "[4]; peak over 0.1-100 μg/ml", "value": 3, "unit": "fold"}, {"measurement": "increases to beat rate, rat cardiomyocytes", "setting": "[4]; three lower tested concentrations, 2 h", "value": "around two-fold"}, {"measurement": "maximum fold-increase to beat rate following heating", "setting": "[5]", "value": 2.5, "unit": "fold"}]}
{"compound": "LKCHKLVPPVWKT [Synthetic peptide 1]", "values": [{"measurement": "increase to the beat rate of human cardiomyocytes over pre-dosing beat rate", "setting": "[6]", "value": 1.5, "unit": "fold"}, {"measurement": "efflux ratio at 120 min, 100 μM", "setting": "[2]; Caco-2, pH 7.4", "value": 0.137}, {"measurement": "recovery at 120 min, 100 μM", "setting": "[2]; A2B", "value": 45.5, "unit": "%"}, {"measurement": "recovery at 120 min, 100 μM", "setting": "[2]; B2A", "value": 96.6, "unit": "%"}, {"measurement": "toxicity to the Caco-2 cells (lucifer yellow monolayer integrity)", "setting": "[3]; 100 μM", "value": "not observed"}, {"measurement": "transporter substrate assessment from the efflux ratio", "setting": "[3]; 100 μM, efflux ratio 0.137", "value": "not a substrate for efflux transporters but could be a possible substrate for uptake transporters"}, {"measurement": "Papp Mean", "setting": "[3]; A2B, 100 μM", "value": "4.60 ×10^−6 cms^−1"}, {"measurement": "Papp Rep 1", "setting": "[3]; A2B, 100 μM", "value": "6.48 ×10^−6 cms^−1"}, {"measurement": "Papp Rep 2", "setting": "[3]; A2B, 100 μM", "value": "2.73 ×10^−6 cms^−1"}, {"measurement": "Papp Mean", "setting": "[3]; B2A, 100 μM", "value": "0.633 ×10^−6 cms^−1"}, {"measurement": "Papp Rep 1", "setting": "[3]; B2A, 100 μM", "value": "0.681 ×10^−6 cms^−1"}, {"measurement": "Papp Rep 2", "setting": "[3]; B2A, 100 μM", "value": "0.584 ×10^−6 cms^−1"}]}
